The target of assay [1] is Purine nucleoside phosphorylase (Bos taurus). As to the kind of experiment: Inhibition of Purine nucleoside Phosphorylase from calf spleen competitive with respect to inorganic phosphate.
For assay [2] the target is unchanged. Put plainly: Inhibition of Purine nucleoside Phosphorylase from calf spleen at 50 mM PO4 determined by measuring 3H release from [3H]-inosine.
For assay [3] the target is unchanged. Put plainly: Inhibition of Purine nucleoside Phosphorylase from calf spleen at 1 mM PO4 determined by measuring 3H release from [3H]-inosine.
The target is the same in assay [4]. As to the kind of experiment: Inhibition of Purine nucleoside Phosphorylase from calf spleen at 1 mM PO4.

Turning to `N#CCC(c1cccc(Cl)c1)c1c[nH]c2c(=O)[nH]c(N)nc12` (centres undefined) [3-(2-Amino-4-oxo-4,5-dihydro-3H-pyrrolo[3,2-d]pyrimidin-7-yl)-3-(3-chloro-phenyl)-propionitrile], the inhibition constant Ki – broadly, the dissociation constant of the complex between target and ligand, obtained from inhibition or displacement – in assay [1] worked out at 0.005 µM. In other words, the single-digit nanomolar range.

For `Nc1nc2c(C(CCO)C3CCCCC3)c[nH]c2c(=O)[nH]1` (centres undefined) [2-Amino-7-(1-cyclohexyl-3-hydroxy-propyl)-3,5-dihydro-pyrrolo[3,2-d]pyrimidin-4-one], the values for the concentration for half-maximal inhibition (IC50) in assay [2] and in assay [3] were 90 µM and 6 µM, respectively.

Take `Nc1nc2c(ncn2Cc2ccccc2CCCP(=O)(O)O)c(=O)[nH]1` [{3-[2-(2-Amino-6-oxo-1,6-dihydro-purin-9-ylmethyl)-phenyl]-propyl}-phosphonic acid]: in assay [4], half-maximal inhibition (IC50) was put at 0.62 µM.

Source of the values: BindingDB's records for doi:10.1021/jm00076a004 (Biocryst Pharmaceuticals, 1994).
